From paper PMC6960228, “Ethoxysanguinarine, a Novel Direct Activator of AMP-Activated Protein Kinase, Induces Autophagy and Exhibits Therapeutic Potential in Breast Cancer Cells” (Frontiers in Pharmacology, 2020)
Read-outs that look alike come from different tables or passages of the source.

What was measured:
Pharmacokinetic study = assay type: in vivo, Sprague-Dawley rats; details: rat; for MRT last: read-out: MRT0-t
Description: Eleven Sprague–Dawley rats (220–250 g, female) were bought from Hunan SJA Laboratory Animal Co., Ltd. (Changsha, China), and maintained and monitored in a specific pathogen-free environment. They were fasted overnight before the experiments. All rat studies were conducted according to protocols approved by the Animal Ethics Committee of Hubei University of Medicine. Six rats were administered with Eth (2 mg/kg) by intravenous injection, and the other five rats were inoculated with Eth (15 mg/kg) by intragastric injection. Blood samples of […] were collected from the orbit at the time points indicated. The plasma concentrations of Eth were determined by […] (Figure S1). The pharmacokinetic parameters were obtained from the pharmacokinetic software DAS 2.0 (Drug and Statistics Version 2.0).
We then tested the pharmacokinetic features of Eth in Sprague-Dawley rats. To do this, six rats were administered Eth (2 mg/kg) by intravenous (i.v.) injection, and another five rats were inoculated with Eth (15 mg/kg) by intragastric (i.g.) injection. the mean plasma concentration-time profiles are shown in Figures 6J, K, and the main pharmacokinetic parameters are summarized in Table 3. […] Therefore, Eth could be a potential therapeutic agent against BC.

[1] = test system: MCF-7, MDA-MB-231, and MDA-MB-436 cells; assay: Soft-agar colony formation assay; assay type: cell-based, human; details: 2 weeks
Description: Cells were suspended in 1 mL of L-15 or DMEM containing 0.3% low-melting-point agarose (Amresco, Cleveland, Oh, USA) and 10% FBS, and plated on a bottom layer containing 0.6% agarose and 10% FBS in 6-well plate in triplicate. After 2 weeks, plates were stained with 0.2% gentian violet and the colonies were counted under light microscope (IX70; Olympus Corporation, Tokyo, Japan) after 2 weeks.

MDA-MB-435S = assay: MTT cytotoxicity assay; assay type: cell-based; details: Homo sapiens, 24 h, means ± SD of quadruplicate determinations
Excerpt: (§1) Human BC cell lines MCF-7, MDA-MB-231, DMA-MB-436, SK-BR3, MDA-MB-468, MDA-MB-453, and MDA-MB-435S and non-tumorigenic MCF-10A human mammary epithelial cells were obtained from American Type Culture Collection (ATCC; Manassas, VA, USA). MCF-7, SK-BR3, MDA-MB-231, and MDA-MB-436 cells were maintained in Dulbecco’s modified Eagle’s medium (DMEM; high glucose; Gibco; Thermo Fisher Scientific, Inc., Waltham, MA, USA) supplemented with 10% fetal bovine serum (FBS; HyClone; Logan, UT, USA) and antibiotics and incubated in a humidified atmosphere with 5% CO2 at 37°C. MDA-MB-468, MDA-MB-453, and MDA-MB-435S cells were maintained in Leibovitz’s L-15 (Gibco) supplemented with 10% FBS and antibiotics and incubated in a humidified atmosphere without CO2 at 37°C. MCF-10A cells were maintained in DMEM/F12 medium containing 5% horse serum (HS), insulin ([…]), epidermal growth factor (EGF, 20 ng/mL), choleratoxin ([…]), hydrocortisone ([…]), penicillin (50 U/mL), and streptomycin (50 U/mL), and incubated in a humidified atmosphere with CO2 at 37°C.
(§2) Cells were seeded into 96-well plate and pre-cultured for 24 h, then treated with Eth for 24. Cell cytotoxicity was determined by MTT assay. The absorbance was measured at 490 nm by automated microplated reader (BioTek Instruments, Inc., Winooski, VT, USA), and the cell death rate was calculated as followed: inhibition rate (%) = (average A490 of the control group − average A490 of the experimental group)/(average A490 of the control group − average A490 of the blank group) × 100%. Cell viability was estimated by trypan blue dye exclusion.

MDA-MB-436 = assay: MTT cytotoxicity assay; assay type: cell-based; details: Homo sapiens, MDA-MB-436, 24 h
Excerpt: as §1, §2

MCF-7 = assay: MTT cytotoxicity assay; assay type: cell-based; details: Homo sapiens, MCF7, MCF-7, 24 h
Excerpt: as §1, §2

MDA-MB-453 = assay: MTT cytotoxicity assay; assay type: cell-based; details: Homo sapiens, MDA-MB-453, 24 h, means ± SD of quadruplicate determinations
Excerpt: as §1, §2

MDA-MB-468 = assay: MTT cytotoxicity assay; assay type: cell-based; details: Homo sapiens, MDA-MB-468, 24 h, means ± SD of quadruplicate determinations
Excerpt: as §1, §2

MDA-MB-231 = assay: MTT cytotoxicity assay; assay type: cell-based; details: Homo sapiens, MDA-MB-231, 24 h
Excerpt: as §1, §2

SK-BR3 = assay: MTT cytotoxicity assay; assay type: cell-based; details: Homo sapiens, SK-BR-3, SK-BR3, 24 h, means ± SD of quadruplicate determinations
Excerpt: as §1, §2

seven BC cell lines = assay: MTT assay, summary over BC cell lines; assay type: cell-based; details: Homo sapiens, range over BC cell lines
Excerpt: as §1
Cells were seeded into 96-well plate and pre-cultured for 24 h, then treated with Eth for 24. Cell cytotoxicity was determined by MTT assay. […]

[2] = female, Sprague-Dawley, plasma, iv, i.v. (2 mg/kg)
[3] = female, Sprague-Dawley, plasma, po, i.g. (15 mg/kg)

CCOC1c2c(ccc3c2OCO3)-c2ccc3cc4c(cc3c2N1C)OCO4 (centres unmarked) [Eth, Ethoxysanguinarine]
AUC(0-t) (Pharmacokinetic study; [2]): 3640 ± 1560 ng·h/mL
Cmax (Pharmacokinetic study; [2]): 3580 ± 756 ng/mL
half-life (Pharmacokinetic study; [2]): 3.54 ± 1.79 h
clearance (Pharmacokinetic study; female, Sprague-Dawley, plasma, iv, i.v. (2 mg/kg), read-out: CLz (converted)): 9.32 mL/min/kg
MRT last (Pharmacokinetic study; [2]): 2.18 ± 0.462 h
AUC(0-t) (Pharmacokinetic study; [3]): 3390 ± 592 ng·h/mL
Cmax (Pharmacokinetic study; [3]): 498 ± 110 ng/mL
half-life (Pharmacokinetic study; [3]): 4.05 ± 1.58 h
MRT last (Pharmacokinetic study; [3]): 7.03 ± 1.01 h
Tmax (Pharmacokinetic study; female, Sprague-Dawley, plasma, iv, 2 mg/kg, i.v. (2 mg/kg), read-out: Tmax): 0.083 h
Tmax (Pharmacokinetic study; female, Sprague-Dawley, plasma, iv, 2 mg/kg, i.v. (2 mg/kg), read-out: time of peak plasma concentration (converted)): 0.033 h
Tmax (Pharmacokinetic study; female, Sprague-Dawley, plasma, po, 15 mg/kg, i.g. (15 mg/kg), read-out: Tmax): 2 h
BA (Pharmacokinetic study; i.g. (15 mg/kg)): 12.43%
CLz (Pharmacokinetic study; i.g. (15 mg/kg)): 73.63 ± 14.9 mL/min/kg
clonogenic ability (colony formation) [1]: significantly inhibited the clonogenic ability
IC50 (MDA-MB-435S): 4.58 ± 0.77 µM
IC50 (MDA-MB-436): 2.63 ± 0.65 µM
IC50 (MCF-7): 3.29 ± 1.5 µM
IC50 (MDA-MB-453): 7.06 ± 0.59 µM
IC50 (MDA-MB-468): 6.67 ± 1.7 µM
IC50 (MDA-MB-231): 3.75 ± 0.94 µM
IC50 (SK-BR3): 2.79 ± 0.39 µM
IC50 (seven BC cell lines): 2.63 to 9.15 µM
